In the supplement of paper PMC10307832:

How the values were obtained:
Experiment in all cases: relative viability (nuclei count vs DMSO), 5 days (fraction); higher = more cells survive
[1] = compound: C=CC(=O)N1CCC[C@@H](n2nc(-c3ccc(Oc4ccccc4)cc3)c3c(N)ncnc32)C1 [Ibrutinib] + CS(=O)(=O)N1CCN(Cc2cc3nc(-c4cccc5[nH]ncc45)nc(N4CCOCC4)c3s2)CC1 [Pictilisib] (partner 1 µM)
Method in brief: (§1)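 Nuclei were stained with Hoechst during a one-step fixation (final 0.05% Triton X-100, 1% formaldehyde, 1 ug/ml Hoechst) carried out 5 days after dosing, then counted on 4× images. The cells, lung cancer lines in 1536-well plates, had been dosed by pin tool the day after seeding with one drug alone or a fixed anchor-drug dose plus five library-drug doses (not always all listed) in √10 steps. Relative viability is the nuclei count in treated wells divided by that in vehicle wells, and each value is the median of duplicate plates.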

[2] = compound: C=CC(=O)Nc1cc(-n2c(=O)ccc3cnc4ccc(-c5ccc(NS(C)(=O)=O)cc5)cc4c32)ccc1C [BMX-IN-1] + CS(=O)(=O)N1CCN(Cc2cc3nc(-c4cccc5[nH]ncc45)nc(N4CCOCC4)c3s2)CC1 [Pictilisib] (partner 1 µM)
Method in brief: as §1

[3] = compound: C=CC(=O)Nc1cc(-n2c(=O)ccc3cnc4ccc(-c5ccc(NS(C)(=O)=O)cc5)cc4c32)ccc1C [BMX-IN-1] + CS(=O)(=O)CCNCc1ccc(-c2ccc3ncnc(Nc4ccc(OCc5cccc(F)c5)c(Cl)c4)c3c2)o1 [Lapatinib] (partner 2 µM)
Method in brief: as §1

[4] = compound: C=CC(=O)Nc1cc(-n2c(=O)ccc3cnc4ccc(-c5ccc(NS(C)(=O)=O)cc5)cc4c32)ccc1C [BMX-IN-1] + O=C(c1cc(Cc2n[nH]c(=O)c3ccccc23)ccc1F)N1CCN(C(=O)C2CC2)CC1 [Olaparib] (partner 8 µM)
Method in brief: as §1

| Cell Line | relative viability ([1]; first compound 0.005 µM) | relative viability ([1]; first compound 0.01581 µM) | relative viability ([1]; first compound 0.05 µM) | relative viability ([1]; first compound 0.1581 µM) | relative viability ([1]; first compound 0.5 µM) | relative viability ([2]; first compound 0.02 µM) | relative viability ([2]; first compound 0.2 µM) | relative viability ([2]; first compound 0.6325 µM) | relative viability ([2]; first compound 2 µM) | relative viability ([3]; first compound 0.02 µM) | relative viability ([3]; first compound 0.2 µM) | relative viability ([3]; first compound 0.6325 µM) | relative viability ([3]; first compound 2 µM) | relative viability ([4]; first compound 0.02 µM) | relative viability ([4]; first compound 0.2 µM) | relative viability ([4]; first compound 0.6325 µM) | relative viability ([4]; first compound 2 µM) |
| --- | --- | --- | --- | --- | --- | --- | --- | --- | --- | --- | --- | --- | --- | --- | --- | --- | --- |
| NCI-H1944 | 0.305 | 0.334 | 0.308 | 0.317 | 0.316 | 0.386 | 0.352 | 0.387 | 0.336 | 0.986 | 0.866 | 0.919 | 0.921 | 0.439 | 0.414 | 0.396 | 0.435 |
| NCI-H1975 | 0.264 | 0.271 | 0.234 | 0.313 | 0.105 | 0.285 | 0.291 | 0.363 | 0.287 | 1.27 | 0.869 | 1.23 | 0.929 | 0.837 | 1.02 | 0.853 | 0.841 |
| NCI-H1993 | 0.777 | 0.7 | 0.139 | – | 0.871 | 0.836 | 0.95 | – | 0.821 | 0.68 | 0.754 | – | 0.815 | 1.21 | 1.15 | 0.913 | 1.06 |
| NCI-H2009 | 0.593 | 0.846 | 0.742 | 0.468 | 0.759 | 1.19 | 0.946 | 0.905 | 0.765 | 0.661 | 1.04 | 1.1 | 0.893 | 0.838 | 0.646 | 0.654 | 0.66 |
| NCI-H2023 | 0.165 | 0.308 | 0.207 | 0.25 | 0.206 | 0.27 | 0.241 | 0.265 | 0.334 | 1.19 | 0.954 | 1.19 | 0.855 | 0.516 | 0.655 | 0.47 | 0.489 |
| NCI-H2085 | 0.432 | 0.473 | 0.48 | 0.369 | 0.417 | 0.433 | 0.389 | 0.485 | 0.443 | 0.831 | 0.821 | 0.764 | 0.763 | 0.807 | 0.704 | 0.782 | 0.746 |
| NCI-H2087 | 0.686 | 0.878 | 0.973 | 0.339 | 0.862 | 0.876 | 0.662 | 0.954 | 1.15 | 1.02 | 1.29 | 1.36 | 1.06 | 0.627 | 0.62 | 0.556 | 0.643 |
| NCI-H2126 | – | 0.469 | 0.454 | 0.399 | 0.43 | 0.473 | 0.481 | 0.568 | 0.51 | 0.899 | 0.768 | 0.827 | 0.784 | 0.979 | 0.897 | 1.03 | 0.875 |
| NCI-H2170 | 0.234 | 0.312 | 0.243 | 0.261 | 0.169 | 0.319 | 0.312 | 0.319 | 0.307 | 0.281 | 0.28 | 0.272 | 0.271 | 0.587 | 0.677 | 0.717 | 0.624 |
